# Data as given in patent US9078831B2, “Cosmetic treatment method using a compound that can be condensed in situ and a UV-radiation-filtering agent” (L'Oreal, priority 2009, dated 2015).
# How the values were obtained:
# [1] = Screening effectiveness (SPF) in vivo; design: species or system volunteers; conditions: spread over a deposited layer of APTES versus bare skin; 2 mg per cm^2; erythema read 24 h later
# Description: (§1) The screening effectiveness and the persistence towards water of a solution of UV screening agents, applied to a condensed deposited layer of APTES, in comparison with a solution deposited on bare skin, are evaluated and compared at different concentrations. The UV screening agents tested are Phenylbenzimidazole Sulfonic Acid and Terephthalylidene Dicamphor Sulfonic Acid.
# The studies were carried out on 5 volunteers of phototype I, II or III. The studies targeted exclusively at determining the screening effectiveness took place over 2 consecutive days, when 3 days were necessary for measurements of persistence towards water. On the first day, the screening formulation is applied at 2 mg per cm^2 on bare skin or on a condensed deposited layer of APTES. The volunteers are subsequently exposed to ultraviolet radiation. Erythema is read and the SPF is defined 24 h later. In the case of a test of persistence towards water, the same solutions or pairs of solutions are applied on the second day. The volunteers are immersed in 2 consecutive baths of water, each of 20 minutes, Wore being again exposed to UV radiation. The post-bath SPF is determined during the third test day. […]
# The SPF values of the 8% and 12% solutions of UV screening agents are measured, which measurements are taken after spreading over bare skin or over deposited layers more or less concentrated in APTES. […]
# [2] = Persistence towards water (water resistance, SPF before and after baths) in vivo; design: species or system volunteers; conditions: APTES layer under Example 2, in words
# Description: as §1
# The studies were carried out on 5 volunteers of phototype I, II or III. The studies targeted exclusively at determining the screening effectiveness took place over 2 consecutive days, when 3 days were necessary for measurements of persistence towards water. On the first day, the screening formulation is applied at 2 mg per cm^2 on bare skin or on a condensed deposited layer of APTES. The volunteers are subsequently exposed to ultraviolet radiation. Erythema is read and the SPF is defined 24 h later. In the case of a test of persistence towards water, the same solutions or pairs of solutions are applied on the second day. The volunteers are immersed in 2 consecutive baths of water, each of 20 minutes, Wore being again exposed to UV radiation. The post-bath SPF is determined during the third test day. The water resistance (WR) is defined as: […]
# The water resistance of the 12% solution of UV screening agents was also evaluated in vivo, with and without APTES. […]
smiles,measurement,setting,value
"CCO[Si](CCCN)(OCC)OCC [APTES, γ-aminopropyltriethoxysilane]",SPF in vivo,[1],SPF increases in proportion as the amount of APTES spread beforehand over the skin increases
same,resistance to water of the UV screening agents,[2],significantly increase the resistance to water
